Test system: Saccharomyces cerevisiae ABC16-Green Monster
Experiment: growth inhibition at single dose (up to 150 µM), below the 70% cut-off for dose-response; higher = more potent
Details: 18 h; 30 °C; YPD
Summary of the method: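 Data are given as percent growth inhibition. Log-phase drug-sensitive S. cerevisiae ABC16-Green Monster cells (OD600 0.1–0.2, 200 µl per well in 96-well plates) were treated in biological duplicates with each library compound at a single 150 µM dose, with untreated cultures alongside, and OD600 was measured at 0 h and after 18 h at 30 °C. Compounds falling below 70% in both replicates were not taken to dose-response.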

| SMILES | growth inhibition at single dose [%] |
| --- | --- |
| CC(C)(C)OC(=O)N1CCN(c2cc(-c3ccc(Oc4ccccc4)cc3)n[nH]2)CC1 | < 70 |
| Cc1ccccc1CN1CCC(O)(c2ccc(Cl)c(C(F)(F)F)c2)CC1 | < 70 |
| CCCCNc1nc(NC(C)(C)C)nc(NC(C)(C)C)n1 | < 70 |
| O=C(Nc1ccccc1O)c1ccc(Oc2cccc(C(=O)Nc3ccccc3O)c2)cc1 | < 70 |
| CC(=O)c1cc2c(N)c(-c3nc(C(C)(C)C)no3)sc2nc1C | < 70 |
| COc1ccc(-c2c(C)nn3c(N)c(C#N)cnc23)cc1OC | < 70 |
| CC(C)n1nc(-c2cc3c(Cl)cccc3[nH]2)c2c(N)ncnc21 | < 70 |
| CCCCN(CCCC)c1c(C#N)cc(S(=O)(=O)Nc2ccccc2)cc1C#N | < 70 |
| Cc1ccc(NC(=O)CC2COc3ccccc3O2)cc1Cl (centres undefined) | < 70 |
| CCN(Cc1ccccc1)C1CCN(Cc2cc(Br)ccc2O)CC1 | < 70 |
| c1ccc(Cn2c(N=Nc3c(Nc4ccccc4)ccc4ccccc34)nc3ccccc32)cc1 | < 70 |
| COc1ccc(-c2cn3c(C(=O)Nc4ccccc4Cl)c(-c4ccccc4)c4c3n2CCCC4)cc1 | < 70 |
| CCCCCCOC(=O)C1=C(C)NC(=O)NC1c1ccccc1F (centres undefined) | < 70 |
| Cc1ccc(C)c(-c2csc(Nc3ccc(C)c(C)c3)n2)c1 | < 70 |
| CC(C)OCc1cc(CN2CCN(c3cccc(Cl)c3)CC2)c(O)c2ncccc12 | < 70 |
| O=c1c2ccccc2[nH]c2ccc(Oc3ncnc4ccsc34)cc12 | < 70 |
| O=C(NC1CCCC1)c1ccc(N2CCC(NCc3cccc(C(F)(F)F)c3)CC2)cc1 | < 70 |
| O=C(Nc1ccc(N2CCCC2)cn1)C1CC=CCC1 (centres undefined) | < 70 |
| c1ccc2c(c1)[nH]c1nc(SCc3cn4ccsc4n3)nnc12 | < 70 |
| CC1CCc2[nH]c3ccc(C(=O)Nc4ccccc4N4CCCCC4)cc3c2C1 (centres undefined) | < 70 |
| Cc1cc(NC(=O)c2ccc(S(=O)(=O)N(Cc3ccccc3)C(C)C)cc2)no1 | < 70 |
| Brc1ccc(-[n+]2nc(-c3ccccc3)nn2-c2nn[nH]n2)cc1 | < 70 |
| CN1CCCN(C(=O)CCNC(=O)/C=C/c2ccco2)c2nc3ccccc3nc21 | < 70 |

| SMILES | growth inhibition at single dose [%] |
| --- | --- |
| CNC1C(OC2C(OC3C(O)C(O)C(NC(=N)N)C(O)C3NC(=N)N)OC(C)C2(O)C=O)OC(CO)C(O)C1O (centres undefined) | < 70 |
| O=C(Nc1ccccc1O)c1ccc(Cn2ccnc2)cc1 | < 70 |
| CCn1c(CN2CCN(Cc3ccccc3)CC2)nc2cc(NC(=O)c3cccs3)ccc21 | < 70 |
| COc1ccc(C(=O)Nc2nonc2-c2ccc(OC)c(OC)c2)cc1Cl | < 70 |
| CC1CCCN(C(=O)C(C)Nc2cc(Cl)ccc2N2CCOCC2)C1 (centres undefined) | < 70 |
| COc1ccc(Nc2nc(NN=Cc3ccc(O)cc3)nc(Nc3ccc([N+](=O)[O-])cc3)n2)cc1 | < 70 |
| COc1ccc2c(=O)cc(C(Cl)(Cl)Cl)oc2c1 | < 70 |
| O=C(CCc1ccco1)NC1CCN(CC2(c3ccc(Cl)cc3)CCC2)CC1 | < 70 |
| Clc1cc(Br)ccc1-c1ccc(CNCC2CCNCC2)o1 | < 70 |
| CC1=C(C(=O)Nc2ccccc2)C(c2ccco2)C(C#N)=C(SCc2ccccc2Cl)N1 (centres undefined) | < 70 |
| CC(C)(C)c1cc(NC(=O)COc2ccc3[nH]c4ccccc4c(=O)c3c2)n(-c2ccccc2)n1 | < 70 |
| COc1ccc(-c2nc3cc(Cc4ccc5[nH]c(-c6ccc(OC)cc6)nc5c4)ccc3[nH]2)cc1 | < 70 |
| Cn1c(=O)n(C)c2cc(CNCCNc3ccnc4cc(Cl)ccc34)ccc21 | < 70 |
| O=C(Nc1ccc(N2CCCCC2)c(Cl)c1)c1ccc(Br)o1 | < 70 |
| O=C(Nc1ccc(C23CC4CC(CC(c5ccccc5)(C4)C2)C3)cc1)c1cccs1 | < 70 |
| CCOC(=O)c1c(NC(=O)Cn2ncc(Cl)c(Cl)c2=O)sc(C(=O)NC)c1C | < 70 |
| COc1cccc(CC(=O)N2CCC(n3c(C)nc4ccc(F)cc43)CC2)c1 | < 70 |
| Oc1ccc(C2=CCN(c3ncnc4ccccc34)CC2)cc1 | < 70 |
| O=C(/C=C/c1ccc([N+](=O)[O-])cc1)NCC(=O)N1CCN(S(=O)(=O)c2ccc(Cl)cc2)CC1 | < 70 |
| Cc1nn(C)c(C)c1NS(=O)(=O)c1c(Cl)cc(-c2ccnc(N3CCNCC3)c2)cc1Cl | < 70 |
| CCOc1cc2c(cc1CNC(=O)c1cnc3cc(C)nn3c1C)OC(C)C2 (centres undefined) | < 70 |
| O=C(Nc1ncccc1O)c1ccc(Cn2cccn2)cc1 | < 70 |
| COc1ccc(O)c(C(=O)c2cc(Cl)c3nc4ccccc4c(=O)n3c2)c1 | < 70 |

| SMILES | growth inhibition at single dose [%] |
| --- | --- |
| CC(=O)NC[C@@H]1CN(c2ccc(N3CCOCC3)c(F)c2)C(=O)O1 | < 70 |
| CN(C(=O)CSc1nnc(COc2ccccc2F)n1N)C1CCCCC1 | < 70 |
| COCCNC(=O)c1nn(CCC(C)C)c2c1CN(C(=O)c1cc(C)n[nH]1)CC2 | < 70 |
| Cc1cc(C)c2c(C)c(C(=O)Nc3nc4ccccc4s3)sc2n1 | < 70 |
| COc1ccccc1N1C(=N)SC(=Cc2ccc(OCc3ccccc3F)cc2)C1=O | < 70 |
| COc1ccc(-[n+]2c(C)cn3c2CCc2ccccc2-3)cc1 | < 70 |
| Cc1cc(Nc2ccncc2)n2nc(C)c(-c3ccccc3Cl)c2n1 | < 70 |
| Nc1ncnc2c1ncn2[C@@H]1O[C@H](COS(=O)(=O)NC(=O)c2ccccc2O)[C@@H](O)[C@H]1O | < 70 |
| O=c1ccc(-c2nc3c4c5c(sc4ncn3n2)CCCCC5)n[nH]1 | < 70 |
| Cc1ccccc1-n1c(C)cc(/C=C(\C#N)C(=O)NCC2CCCO2)c1C (centres undefined) | < 70 |
| COc1cccc(Nc2nc(-c3ccc(CCC(C)NC(C)=O)cc3)cs2)c1 (centres undefined) | < 70 |
| CC1CN(C(=O)c2sc3ccccc3c2Cl)CC(C)O1 (centres undefined) | < 70 |
| O=C1c2ccccc2-c2nnc(-c3ccc(Br)cc3)cc21 | < 70 |
| CS(=O)(=O)Cc1nc2ccccc2oc1=O | < 70 |
| Cc1ccc2ncnc(NCCc3ccccc3)c2c1 | < 70 |
| O=c1cc(NC2CCN(CCCc3ccccc3)CC2)c2cc(Cl)ccc2o1 | < 70 |
| CC(C)CCNCC(O)Cn1c2ccccc2c2ccccc21 (centres undefined) | < 70 |
| O=C(Nc1ccc2c(c1)OC1(CCCCC1)O2)c1ccc[nH]c1=O | < 70 |
| C/N=c1\scc(-c2ccc(OC(F)F)cc2)n1/N=C/c1ccccc1Br | < 70 |
| Cc1nc2ccccn2c1C(=O)NCc1ccc(Cl)cc1 | < 70 |
| O=c1nc(/C=C/c2ccc(Cl)cc2)oc2ccccc12 | < 70 |
| Cc1cc(C)c2cc(C(=O)Nc3ccc(N4CCN(C)CC4)nc3)[nH]c2c1 | < 70 |
| COc1ccc(CCN2CCC(NCc3cccc(N(C)C)c3)CC2)cc1 | < 70 |

— the supplement of paper PMC8837787
